What was measured:
[1] = molecular target: T1, SSB-2/elongin BC complex ubiquitination of iNOS (Mus musculus, UniProt O88838); assay: Cell-free ubiquitination assay of iNOS; type: biochemical; settings: excess free iNOS peptide; 10 and 40 min incubation
T1 sequence (O88838 1-264): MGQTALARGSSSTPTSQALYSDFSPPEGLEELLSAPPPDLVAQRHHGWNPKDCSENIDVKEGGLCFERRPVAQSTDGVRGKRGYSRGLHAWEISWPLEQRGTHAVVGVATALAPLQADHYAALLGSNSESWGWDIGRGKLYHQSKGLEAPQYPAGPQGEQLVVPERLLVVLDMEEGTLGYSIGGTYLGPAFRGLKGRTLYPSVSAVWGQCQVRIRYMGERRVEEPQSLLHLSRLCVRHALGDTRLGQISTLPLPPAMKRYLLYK
Procedure: Ubiquitination assays were performed in 20 μl in 20 mM Tris-HCl, 50 mM NaCl, 5 mM MgCl2, 2.5 mM ATP, 0.1 mM DTT. Reactions were stopped by the addition of 2×SDS PAGE loading buffer and heating at 95° C. for 5 min. Reactions contained 0.1 μM E1, 2.5 μM E2, 2.5 μM E3, 50 μM ubiquitin and 5 μM SSB-2/elonginBC and were incubated for 30 minutes or as indicated at 37° C. Cell lysate was added as substrate. Results were visualised by Western Blot using anti iNOS monoclonal antibody following SDS-PAGE.
SOCS box proteins recruit an E3 ubiquitin ligase complex which in the presence of E1 and […] enzymes polyubiquitinates interacting proteins, targeting them for proteasomal degradation. […] LPS/IFNγ stimulated macrophage lysates were used as a source of iNOS and incubated with ubiquitin and a trimeric SSB-2/elongin BC complex, in the presence of E1 and E2 enzymes, Rbx 1 and Cullin5. The reaction mixtures were then analysed by SDS-PAGE and Western blot with anti-iNOS antibodies. Enhanced. polyubiquitination of iNOS, as evidenced by higher molecular weight smearing, was observed after 10 and 40 min incubation in the presence of the SSB2/elongin BC complex.

[2] = molecular target: T2, SSB-2 SPRY domain (SSB-2ΔSB, residues 12-224) (Mus musculus, UniProt O88838); assay: ITC of SSB-2 SPRY domain with iNOS N-terminal peptides; type: binding; settings: 25° C., 100 mM TrisHCl, 150 mM NaCl, pH 8.0
T2 construct: GST (N, cleaved yes); made in house; host or cells: E. coli BL21 (DE3)
T2 sequence (O88838 12-224): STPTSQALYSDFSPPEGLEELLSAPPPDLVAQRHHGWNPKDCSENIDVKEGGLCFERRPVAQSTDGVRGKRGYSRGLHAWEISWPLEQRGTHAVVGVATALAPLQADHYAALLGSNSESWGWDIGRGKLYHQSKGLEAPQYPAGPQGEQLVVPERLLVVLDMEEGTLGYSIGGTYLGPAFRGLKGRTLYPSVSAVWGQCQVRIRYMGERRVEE
Excerpt: The construct used for expression of recombinant murine SSB-2 protein included almost all the native sequence of mouse SSB-2 except for the SOCS box and the first eleven residues (residues 12-224, SWISS-PROT accession number 088838). This sequence, together with six residues at the N-terminus (GSSARQ (SEQ ID NO:38), numbered 6-11) and seven at the C-terminus (TRRIHRD (SEQ ID NO:39), numbered 225-231), both originating from the vector, gave a construct of 226 residues in total. This was expressed as a GST fusion protein in BL21 (DE3) E. coli. For ITC and co-precipitation experiments, bacteria were grown in L-broth. For NMR analysis, bacteria were grown in M9 minimal media supplemented with ^15N NH4Cl (99%, 1 g L−1). The GST fusion protein was purified from clarified cell lysates using Glutathione Sepharose 4B (Amersham Biosciences) then cleaved in situ using thrombin (Roche). […]
To determine whether the SSB-2-SPRY domain could interact with the sequence identified by the database searches, a series of peptides including the wild-type and various mutant sequences corresponding to amino acids 19-31 of murine iNOS, were synthesized and binding affinities for the SSB-2-SPRY domain (residues 12-224; SSB-2ΔSB) measured using isothermal titration calorimetry (ITC) (Table 2, FIG. 3).

SSB-2ΔSB = molecular target: T3, SSB-2ΔSB (Mus musculus, UniProt O88838); assay: 1H-15N HSQC NMR titration of iNOS peptide into 15N-labelled SSB-2ΔSB; type: binding; settings: 0.1 mM SSB-2ΔSB, ratios 1:0.5, 1:1, 1:1.5, pH 7.0, 22° C.
T3 construct: GST (N, cleaved yes); made in house; host or cells: E. coli BL21 (DE3)
T3 sequence (O88838 12-224): T2 sequence (O88838 12-224)
Procedure: NMR spectra were recorded on an Avance 500 spectrometer equipped with a cryoprobe. The ^1H chemical shifts were referenced indirectly to DSS at 0 ppm via the H2O signal, and the ^13C and ^15N chemical shifts were referenced indirectly using absolute frequency ratios (Wishart et al., 1995). Spectra were processed using Topspin version 1.3 (Bruker Biospin) and analysed using XEASY, version 1.3. ^15N-labelled SSB-2ΔSB Sample for NMR analysis were prepared in H2O containing 5% ^2H2O, 10 mM sodium phosphate, 50 mM sodium chloride, 2 mM EDTA, 2 mM DTT and 0.02% (w/v) sodium azide at pH 7.0. Two-dimensional ^1H-^15N HSQC spectrum of a 0.1 mM ^15N-labelled SSB-2ΔSB sample was recorded and 22° C. using a data matrix size of 2048×256 and with 128 scans per t1 increment. The spectral widths were 13.5 ppm for ^1H and 40.0 ppm for ^15N; carrier frequencies were 4.7 ppm for ^1H and 118 ppm for ^15N. Unlabelled iNOS N-terminal peptide (wild-type) were then titrated into the ^15N-labelled SSB-2ΔSB sample, and ^1H-^15N HSQC spectra recorded at ^15N-labelled SSB-2ΔSB:iNOS peptide ratios of 1:0.5, 1:1, and 1:1.5.
Nuclear magnetic resonance (NMR) spectroscopy was then used to further analyze the SSB-2:iNOS peptide interaction. […]

With “Ac-KEEKDINNNVKKT-NH2 [I, Ac-KEEKDINNNVKKT-NH2]” the “inhibition of polyubiquitination of iNOS” value [1] was “completely inhibited”, the Kd [2] was 13 nM and the “binding to SSB-2ΔSB by NMR” value (SSB-2ΔSB) was “bound to SSB-2ΔSB”.

Reference: patent publication US20120308570A1, “METHODS FOR TREATING DISEASES” (priority 2009, published 2012)
